Source: patent US20250340556A1, “PYRIMIDOPYRIMIDONE COMPOUNDS AND METHODS OF USE THEREOF” (Soltego, Inc., priority 2022, published 2025)
“Also recorded” adds a separate entry of the source. Like-named read-outs stand apart in the source and are kept apart here.

How the values were obtained:
SIK3 (h) = SIK3 (h) (Homo sapiens (Human), UniProt Q9Y2K2); test: SIK3 kinase activity, Eurofins KinaseProfiler ([γ-33P]-ATP filter assay); type: biochemical; conditions: Table 6, macrocycles
Procedure: (§1) SIK1, 2 and 3 kinase activity was assessed using a Eurofins Cerep S.A. (‘Eurofins’) KinaseProfiler. All compounds were prepared to 50× final assay concentration in 100% DMSO. This working stock of the compound was added to the assay well as the first component in the reaction, followed by the remaining components as detailed in the general assay protocols below. In the standard KinaseProfiler service, there is no pre-incubation step between the compound and the kinase prior to initiation of the reaction. The positive control well contains all components of the reaction, except the compound of interest; however, DMSO (at a final concentration of 2%) is included in these wells to control for solvent effects. The blank wells contain all components of the reaction, with a reference inhibitor replacing the compound of interest. This abolishes kinase activity and establishes the base-line (0% kinase activity remaining).
(§2) SIK3 (h) was incubated with 8 mM MOPS pH 7.0, 0.2 mM EDTA, 100 μM […], 10 mM Magnesium acetate and [γ-33P-ATP](specific activity and concentration as required). The reaction was initiated by the addition of the Mg/ATP mix. After incubation for 40 minutes at room temperature, the reaction is stopped by the addition of phosphoric acid to a concentration of 0.5%, 10 LL of the reaction was then spotted onto a P30 filtermat and washed four times for 4 minutes in 0.425% phosphoric acid and once in methanol prior to drying and scintillation counting.

[1] = ester bond, 14-membered ring
SIK (h) / SIK1 = SIK (h) / SIK1 (Homo sapiens (Human), UniProt P57059); test: SIK1 kinase activity, Eurofins KinaseProfiler ([γ-33P]-ATP filter assay); type: biochemical; conditions: Table 6, macrocycles
Procedure: as §1
as §2, with “SIK” for “SIK3”, “[γ-33P]-ATP (specific” for “[γ-33P-ATP](specific”, “was” for “is”, “μL” for “LL”

SIK2 (h) = SIK2 (h) (Homo sapiens (Human), UniProt Q9H0K1); test: SIK2 kinase activity, Eurofins KinaseProfiler ([γ-33P]-ATP filter assay); type: biochemical; conditions: Table 6, macrocycles; read-out: IC50 nM SIK2
Procedure: as §1
as §2, with “SIK2” for “SIK3”, “was” for “is”, “μL” for “LL”

SIK1 = SIK1 (Homo sapiens (Human), UniProt P57059); test: cell-based
SIK1, sequence (P57059 whole entry): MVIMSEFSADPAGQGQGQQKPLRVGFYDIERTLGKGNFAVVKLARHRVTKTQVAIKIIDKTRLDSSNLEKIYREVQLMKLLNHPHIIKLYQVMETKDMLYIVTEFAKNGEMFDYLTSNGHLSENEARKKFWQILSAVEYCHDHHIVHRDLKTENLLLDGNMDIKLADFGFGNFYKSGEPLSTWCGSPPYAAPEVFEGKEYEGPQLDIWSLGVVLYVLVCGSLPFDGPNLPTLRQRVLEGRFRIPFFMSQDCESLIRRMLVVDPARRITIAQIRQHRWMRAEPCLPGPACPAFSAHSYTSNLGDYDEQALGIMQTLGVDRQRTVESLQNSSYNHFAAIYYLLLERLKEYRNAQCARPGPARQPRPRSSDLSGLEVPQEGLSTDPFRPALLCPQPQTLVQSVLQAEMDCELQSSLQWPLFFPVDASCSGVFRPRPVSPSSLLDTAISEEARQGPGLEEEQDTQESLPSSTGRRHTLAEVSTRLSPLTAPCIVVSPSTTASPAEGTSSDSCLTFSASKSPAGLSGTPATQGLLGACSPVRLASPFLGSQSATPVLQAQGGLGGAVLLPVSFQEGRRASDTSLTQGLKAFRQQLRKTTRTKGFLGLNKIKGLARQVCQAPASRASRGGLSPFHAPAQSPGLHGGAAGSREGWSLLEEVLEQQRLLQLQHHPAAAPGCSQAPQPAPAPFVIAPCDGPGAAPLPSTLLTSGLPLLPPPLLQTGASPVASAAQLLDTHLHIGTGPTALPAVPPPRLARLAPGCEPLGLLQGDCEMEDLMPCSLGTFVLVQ

[2] = system: living human skin explants; test: Cell viability of living human skin explants, Masson's trichrome staining (Example 8); type: cell-based; conditions: 1% topical in vehicle E
Procedure: All the tested products were diluted in the vehicle noted as E (Ethanol 65%, Propylene glycol 25%, Transcutol 10%). The diluted solutions were stored at 4° C. within the study period. 36 human skin explants of an average diameter of 11 mm (+1 mm) were prepared on an abdoplasty coming from a person (reference: P2462-AB53) with a III phototype. The explants were kept in survival in BEM culture medium (BIO-EC's Explants Medium) at 37° C. in a humid, 5%-CO2 atmosphere. Study is performed on human skin tissue, obtained from surgical residues in full respect with the Declaration of Helsinki and the article L. 1243-4 of the French Public Health Code.
The excipient E and the tested products were applied topically at a rate of 2 μL per 1 cm^2 explant (˜2 mg/cm^2) and spread and gently rubbed for 10 seconds using a small spatula on day 0 (DO), D3, D5, D7 and D10. […] The culture medium was half renewed (1 ml per well) on D3, D5, D7 and D10. On D0, D3, D4, D5, D6, D7 and D10, the culture media of the irradiated explants (UV) were replaced by HBSS (Hank's Balanced Saline Solution; 1 ml per explant). Then, the explants of the “UV” batch were irradiated using a UV simulator Vibert Lourmat RMX 3W with a dose of 2.25 J/cm^2 of UVA (with 6-8% of UVB) corresponding to 0.5 MED (minimal erythemal dose) on a skin with a III phototype. At the end of the UV irradiation, the explants form the batch TUV were put back in 2 mL of BEM medium. On D0, the 3 explants from the batch TO were collected and cut in two parts. Half was fixed in buffered formalin solution and half was frozen at −80° C. On D10, 3 explants from the concerned batches were collected and treated in the same way than in DO. According to the dispositions mentioned in the study plan, the days of treatments, irradiations and sampling were adjusted to the schedule of working days. After fixation for 24 hours in buffered formalin, the samples were dehydrated and impregnated in paraffin using a Leica PEARL dehydration automat. The samples were embedded using a Leica EG 1160 embedding station. 5-μm-thick sections were made using a Leica RM 2125 Minot-type microtome, and the sections were mounted on Superfrost® histological glass slides. The frozen samples were cut into 7-μm-thick sections using a Leica CM 3050 cryostat. Sections were then mounted on Superfrost®, plus silanized glass slides. The microscopical observations were realized using a Leica DMLB or Olympus BX43 microscope. Pictures were digitized with a numeric DP72 Olympus camera with CellSens storing software.
The cell viability of the epidermal and dermal structures was assessed by microscopical observation of formalin-fixed paraffin-embedded (FFPE) skin sections after Masson's trichrome staining, Goldner variant.

[3] = system: living human skin explants; type: cell-based
[4] = system: living human skin explants; test: Pigmentation of living human skin explants ex vivo (Example 10); type: cell-based; conditions: 15 mM and 21 mM, 5 μL/cm2 topically each day for 6 days
Procedure: SLT-045 (3, 7, 15, 21 mM; 5 μL/cm2) in vehicle (44.9% DMSO/37.5% EtOH/17.4% propylene glycol) was applied topically applied using a Pasteur pipette, each day for 6 days using triplicate skin samples (8 mm punch).

[5] = system: living human skin explants; test: Melanin in living human skin explants, Fontana-Masson staining (Example 9); type: cell-based; conditions: for melanin content (staining, microscopical observation): Propylene glycol 30%; for surface occupied by melanin in the basal cell layer of the epidermis: vehicle E 7.9
Procedure: All the tested products were diluted in the vehicle (Ethanol 70%, Propylene glycol 30%). 24 human skin explants of an average diameter of […] were prepared on an abdoplasty coming from a person (reference: P2511-AB43) with a II phototype. The explants were kept in survival in BEM culture medium (BIO-EC's Explants Medium) at 37° C. in a humid, 5%-CO2 atmosphere. Products were applied topically at a rate of 2 μL per 1 cm^2 explant (2 mg/cm^2) and spread and gently rubbed for 10 seconds using a small spatula on day 0 (D0), D2, D5 and D7. […] The culture medium was half renewed (1 ml per well) on D2, D5 and D7. After fixation for 24 hours in buffered formalin, the samples were dehydrated and impregnated in paraffin using a Leica PEARL dehydration automat. The samples were embedded using a Leica EG 1160 embedding station. 5-μm-thick sections were made using a Leica RM 2125 Minot-type microtome, and the sections were mounted on Superfrost® histological glass slides. The frozen samples were cut into 7-μm-thick sections using a Leica CM 3050 cryostat. Sections were then mounted on Superfrost® plus silanized glass slides. The microscopical observations were realized using a Leica DMLB or Olympus BX43 microscope. Pictures were digitized with a numeric DP72 Olympus camera with CellSens storing software. Melanin was visualized after silver impregnation according to Masson's Fontana staining method on FFPE skin sections. The staining was assessed by microscopical observation (FIG. 5) and by image analysis (FIG. 6).

B16 4A5 cells = test: B16 4A5 cell viability, MTS assay; type: cell-based, mouse; conditions: 5 μg/mL, 72 h, compared with DMSO 0.1% control
Procedure: B16 4A5 cells were seeded in 24-well plates at 20,000 cells/well, 24 h before the beginning of the treatment with test compounds at 5 concentrations, in triplicates (n=3). […] Additionally, DMSO at 0.1%, used for solubilization of the test compounds, was tested in parallel. The treatments were performed in culture medium containing only 1% of FBS. […] The effects of the compounds on B16 4A5 viability was assessed. To this purpose, cells were incubated during 72 h with 5 concentrations of the compounds, were left untreated, treated with SDS or with DMSO 0.1%.

Structure (SMILES) | IC50 (SIK3 (h)) [nM] | ring closure, isolated yield ([1]; from Cc1cccc(C)c1N1Cc2cnc(Nc3ccc(N4CCN(C)CC4)c(CO)c3)nc2N(CCCC(=O)O)C1=O, DCC/DMAP/3A MS, DCM/DMF, 5.37 mM, 25.0 °C, 16.0 h) [%] | IC50 (SIK (h) / SIK1) [nM] | IC50 (SIK2 (h)) [nM] | EC50 (SIK1) [nM] | cell viability of epidermal and dermal structures [2] | increase of melanin in the suprabasal layers [3] [%] | ring closure, isolated yield ([1]; from Cc1cccc(C)c1N1Cc2cnc(Nc3ccc(N4CCN(C)CC4)c(C(=O)O)c3)nc2N(CCCCO)C1=O, 2,4,6-trichlorobenzoyl chloride/TEA, DMAP, toluene/DMF, 5.0 mM, 110.0 °C, 16.0 h) [%] | visual skin pigmentation [4] | ring closure, isolated yield ([1]; from Cc1cccc(C)c1N1Cc2cnc(Nc3ccc(N4CCN(C)CC4)c(CC(=O)O)c3)nc2N(CCCO)C1=O, DCC/DMAP/3A MS, DCM/DMF, 25.0 °C, 2.0 h) [%] | change of surface occupied by melanin in the basal cell layer vs the vehicle ([5]; 0.2% topical) | melanin content (staining, microscopical observation) ([5]; 0.2% topical in Ethanol 70%) | surface occupied by melanin in the basal cell layer of the epidermis ([5]; 0.2% topical) | change of surface occupied by melanin in the basal cell layer vs the vehicle ([5]; 2% topical) | melanin content (staining, microscopical observation) ([5]; 2% topical in Ethanol 70%) | surface occupied by melanin in the basal cell layer of the epidermis ([5]; 2% topical) | viability of cells (B16 4A5 cells)
Cc1cccc(C)c1N1Cc2cnc3nc2N(CCCC(=O)OCc2cc(ccc2N2CCN(C)CC2)N3)C1=O [SLT-026] | 3 | 9 | 2 | 2 | 3.24 | very slightly decreased | 50 | – | – | – | – | – | – | – | – | – | –
Cc1cccc(C)c1N1Cc2cnc3nc2N(CCCCOC(=O)c2cc(ccc2N2CCN(C)CC2)N3)C1=O [SLT-042] | 2 | – | 2 | 0.7 | 2.02 | very slightly decreased | 25 | 22 | – | – | – | – | – | – | – | – | –
COC(=O)Cc1cc(Nc2ncc3c(n2)N(CCCO)C(=O)N(c2c(C)cccc2C)C3)ccc1N1CCN(C)CC1 [SLT-045] | – | – | – | – | – | – | – | – | induced a visual skin pigmentation | – | – | – | – | – | – | – | –
Cc1cccc(C)c1N1Cc2cnc3nc2N(CCCOC(=O)Cc2cc(ccc2N2CCN(C)CC2)N3)C1=O [SLT-048] | – | – | – | 0.6 | 2.58 | very slightly decreased | – | – | – | 21 | +24% | slight increase; also recorded: increased | 10.0 | +56% | moderate increase; also recorded: highly increased | 12.6 | slightly diminished
